Measurements as given in article PMC4830539, “Chemical Inhibition of Histone Deacetylases 1 and 2 Induces Fetal Hemoglobin through Activation of GATA2” (PLoS ONE, 2016).

Assays:
[1] = set-up: method as in earlier work; conditions: monkey; cited from earlier work
HBG mRNA = HBG mRNA (%) by QPCR in differentiating BM cells (CS1, CS2); assay type: cell-based, human
Protocol: CD34+ cells isolated from human bone marrow of healthy normal donors (Lonza, AllCells, or StemCell Technologies), referred to as BM cells throughout this work, were cultured using two distinct 2-phase culture systems. These systems have been described previously and are referred to as Culture System 1 (CS1) and Culture System 2 (CS2) throughout this work. CS1 expansion media is StemSpan SFEM (StemCell Technologies) supplemented with CC100 (StemCell Technologies), 100 U/mL penicillin and 100 μg/mL streptomycin. CC100 is a mix of Flt-3 ligand (FLT3LG), KIT ligand (KITLG), interleukin-3 (IL3), and interleukin-6 (IL6). CS1 differentiation media is StemSpan SFEM supplemented with 1 U/ml erythropoietin (EPO), 5 ng/mL IL3, 20 ng/mL KITLG, 2 μM dexamethasone, 1 μM beta-estradiol, 100 U/mL penicillin and 100 μg/mL streptomycin. CS2 expansion media is StemSpan SFEM supplemented with 1% glutamine, 40 μg/mL lipids (Sigma), 100 ng/mL KITLG, 10 ng/mL IL3, and 0.5 U/mL EPO. CS2 differentiation media is same as CS2 expansion media, except 3 U/mL EPO.
Globin mRNA was detected using quantitative real time PCR (QPCR). Total RNA was isolated using RNeasy Micro Kit (Qiagen) with on-column DNase digestion, converted into cDNA using the High Capacity RNA-to-cDNA Kit (Life Technologies), diluted 5-fold with water, and 1 μL used as a template for QPCR. The percent of each β-like globin transcript was determined using the absolute standard curve method. Briefly, DNA corresponding to the full length transcript for each globin isoform was cloned into […] plasmid (GenScript, Piscataway NJ). Each plasmid was validated against each QPCR probe to ensure specificity. Plasmids were pooled at equal molar concentration and a dilution series spanning 8-logs was utilized as the standard curve. Throughout this work, ‘HBG mRNA (%)’ and ‘percent HBG mRNA’ refers to the abundance of HBG mRNA expressed relative to the sum of the abundances of all β-like globin transcripts, i.e. [HBG/(HBB+HBD+HBG+HBE)]*100. In cases where the transcript of interest was compared against the housekeeping gene ACTB, the comparative Ct ([…]) method was utilized. Probes used for QPCR: HBB (Hs00747223_g1), HBD (Hs00426283_m1), HBG (Hs00361131_g1, detects both HBG1 and HBG2), HBE (Hs00362215_g1), GATA1 (Hs01085823_m1), GATA2 (Hs00231119_m1), KLF1 (Hs00610592_m1), MYB (Hs00920556_m1), SOX6 (Hs00264525_m1), BCL11A (Hs01093197_m1), and ACTB (Hs99999903_m1).
To evaluate the ability of ACY-957 to activate HBG, we utilized two distinct 2-phase culture systems, referred to as CS1 [24] and CS2 [21], to derive erythroid progenitors and erythroblasts from CD34+ human bone marrow cells (BM cells). […]

[2] = system: GATA2 binding at the HBD promoter; assay: GATA2 ChIP-QPCR at the HBD promoter; assay type: cell-based, human; conditions: 1 μM
Protocol: Cells were fixed in 1% formaldehyde for 15 minutes at room temperature. Crosslinking reaction was extinguished by adding glycine to 125 mM. Cells were washed three times in PBS, 0.5% lgepal CA-630, 1 mM phenylmethanesulfonyl fluoride (PMSF). Cell pellets were snap frozen on dry ice and stored at -80°C.
For ChIP-QPCR experiments, chromatin (11 μg) from vehicle (n = 1) or ACY-957 (n = 1) treated cells was fragmented by sonication, then immunoprecipitated (n = 3, each) using antibodies against histone H3 lysine 9 acetylation (3 μg, ab10812, Abcam), histone H2B lysine 5 acetylation (6 μL, ab40886, Abcam), histone H3 lysine 27 acetylation (3 μg, ab4729, Abcam), or GATA2 (6 μg, SC-9008, Santa Cruz). Specific genomic regions within immunoprecipitated and input DNA was detected using SYBR green QPCR with the following primer pairs:
GATA2 could affect HBG indirectly, through altering the expression of other factors which, in turn, act directly at the β-like globin gene cluster. […] To investigate this possibility, we looked at the β-like globin gene cluster in the GATA2 ChIP-Seq data presented above. Six statistically significant GATA2 binding peaks were identified in vehicle treated cells across the 70 kb region (Fig 9A); corresponding to four locus control region (LCR) hypersensitivity sites, a region in the HBB gene, and a region near the HBD gene promoter. […]

For Nc1ccc(-c2cccs2)cc1NC(=O)c1ccc2nc(N3CCNCC3)ccc2c1 [ACY-957], the pharmacokinetic properties [1] is listed as “favorable”, the “HBG mRNA (%)” value (HBG mRNA; CS1, day 5, 1 μM) is listed as 35% and the “each β-like globin mRNA relative to ACTB” value (HBG mRNA; CS1 and CS2, 1 μM) is listed as “significantly increased levels of HBE and HBG mRNA and decreased levels of HBD and HBB mRNA”. For the same molecule, the “increase of HBG level over vehicle treated controls” value (HBG mRNA; CS1 and CS2, day 5, 1 μM) was “approximately 3.5 fold”, the “HBG mRNA (%)” value (HBG mRNA; CS2, day 5, 1 μM) was 24% and the “GATA2 binding at control region within the HBB gene” value [2] was “unaffected”. The “increase in GATA2 binding at the HBD promoter” value [2] was 2 fold.
